Data from article PMC6486608, “A cell-penetrating peptide blocks Toll-like receptor-mediated downstream signaling and ameliorates autoimmune and inflammatory diseases in mice” (Experimental & Molecular Medicine, 2019).
Ends that are not written are not given here.

Assays:
[1] = test system: CIA mouse model (DBA/1J mice); assay: RA in a model of CIA; format: in vivo; details: i.p. daily
Method: All animal care and experimental procedures were conducted in accordance with the National Institute of Health Guide for the Care and Use of Laboratory Animals and were approved by the Animal Care and Use Committee of Kyung Hee University [Permit number: KHUASP(SE)-15-115]. Male DBA/1J mice weighing 20–23 g (6–7 weeks old) were purchased from Central Lab Animal Inc. (Seoul, Korea). The mice were housed in a limited-access rodent facility at 22–24 °C with up to four animals per polycarbonate cage under a 12:12-h light/dark cycle with free access to pelleted food and water. CIA was implemented according to the protocol previously described. Briefly, the mice were immunized at the base of the tail with a mixture of 100 μg of chicken type II collagen (CII, Sigma-Aldrich) and an equal volume of complete Freund’s adjuvant (Sigma-Aldrich); this time point was designated as day 0. The mice were then given a booster (second) injection of the mixture on day 14. […] To evaluate arthritis progression in the CIA mice, body weight, paw volume, squeaking score, and the arthritic index were measured. The mouse body weights were measured using a digital balance (Mettler-Toledo Inc., Columbus, OH, USA). Joint pain in the hindlimb was evaluated by scoring squeaking during forced flexion and extension of the hindlimb ankle joint 10 times every 5 s. […] Total numbers of vocalizations detected by the observer were then calculated as the squeaking score. Paw volume was measured by the volume displacement of an electrolyte solution using a water-displacement plethysmometer (Ugo-Basile Biological Research Apparatus Co., Comerio-Varese, Italy) as described elsewhere[13],[14]. The hind paw was immersed to the level of the hairy skin, and the volumes were read on a digital display. Paw volume was expressed as a relative value compared with that on day 0, which was defined as 1.0 (100%). […]

[2] = target: T1, BB loop (710-RDFIPGVAIAA-720) of the TLR4-TIR domain (Homo sapiens, UniProt O00206); assay: SPR, BB loop; format: binding
T1 construct: Synthetic peptides encoding the BB loop (710-RDFIPGVAIAA-720) of the TIR domain were immobilized; purchased Peptron, Inc. (Daejeon, Korea); host or cells: chemical synthesis
Method: The SPR experiments were conducted using a ProteOn XPR36 instrument (Bio-Rad Laboratories, Inc.) with a ProteOn NLC sensor chip. PBST served as running buffer, and 0.85% phosphoric acid or PBST was used for regeneration. Synthetic peptides encoding the BB loop (710-[…]-720) of the TIR domain were immobilized by NeutrAvidin bound to the GLC polymer layer onto surfaces of an NLC sensor chip as described in the protocol. Different concentrations of TIP1 (12.5, 25, or 50 μM) were run into the chip to check their binding with the immobilized peptides. Running buffer was injected into an empty channel as a reference. The dissociation was monitored for 5 min, and the chip was regenerated for the second round. ProteOn Manager software (version 2.0) was employed to analyze the data. The binding curves were processed for the start injection alignment and baseline. A reference-subtracted sensorgram was fitted globally to the curves describing a homogeneous 1:1 model. Data from various doses of TIP1 were grouped together to fit the kinetic rate constants (ka and kd). The equilibrium dissociation constant, KD, was calculated according to the equation KD = kd/ka. Surface plasmon resonance (SPR) is a powerful technique used for high-throughput screening and is considered a potent tool for drug discovery. SPR can provide detailed information on peptide-receptor binding kinetics or small-molecule-protein or protein-protein interactions. […] The association rate constant (ka), dissociation rate constant (kd), and equilibrium dissociation constant (KD) of TIP1 were measured in a dose-dependent manner (Fig. 4a). […] Later, the fluorescence intensities of TIP1-FITC, TLR4, and MyD88 were measured by immunofluorescent staining and confocal microscopy. […] The expression levels of TLR4 and MyD88 and the localization of TIP1-FITC were determined by immunofluorescent staining and confocal microscopy. Orthogonal projections, 3D image reconstruction, and fluorescence intensity profiles of confocal images show localization of TIP1-FITC and TLR4.

C[C@]12C=CC(=O)C=C1CC[C@@H]1[C@@H]2[C@@H](O)C[C@@]2(C)[C@H]1CC[C@]2(O)C(=O)CO [prednisolone]
body weight, average ([1]; TIP1 10 nmol/g or prednisolone 5 mg/kg, CIA 16.9 g, normal 21.9 g): 21.0 g | arthritis index score ([1]; TIP1 10 nmol/g or prednisolone): significantly decreased the index score | squeaking and paw volume increase ([1]; TIP1 10 nmol/g or prednisolone): highly increased in the CIA mice compared with normal mice but not in the TIP1 (10 nmol/g)- or prednisolone-injected mice

RQIKIWFQNRRMKWKKSHCRVLLI [TIP1]
kon ([2]; homogeneous 1:1 model, global fit of 12.5, 25, 50 µM, read-out: ka (association rate constant)): 187 M⁻¹ s⁻¹ | koff ([2]; homogeneous 1:1 model, global fit of 12.5, 25, 50 µM, read-out: kd (dissociation rate constant)): 0.00782 s⁻¹ | Kd ([2]; printed in figure 4a, calculated as kd/ka): 41.8 µM
